Measurements from patent US8202987B2, “Method of obtaining conformational polymorph of sucrose” (National Central University, priority 2007, dated 2012).

Format: physicochemical
Procedure: Then an anti-solvent method is used at 60° C. to add methanol into the saturated sucrose solution for obtaining the new sucrose through re-crystallization. The new sucrose obtained has a melting point at 150° C., which is lower then 190° C. for the original sucrose. […] Therefore, the present invention contributes to sugar industry, drug industry and food industry.
Conclusively, a novel conformational polymorph of sucrose is obtained according to the present invention.

In the case of `OC[C@H]1O[C@@](CO)(O[C@H]2O[C@H](CO)[C@@H](O)[C@H](O)[C@H]2O)[C@@H](O)[C@@H]1O` [new sucrose, sucrose], the “solubility relative to the original sucrose” value is reported as “lower solubility than the original sucrose” and the “stability relative to the original sucrose” value is reported as “higher stability than the original sucrose”.

In the case of `OC[C@H]1O[C@@](CO)(O[C@H]2O[C@H](CO)[C@@H](O)[C@H](O)[C@H]2O)[C@@H](O)[C@@H]1O` [sucrose], the solubility is reported as 2873 milligrams sucrose per milliliter water.
